The values that follow come from ChEMBL document CHEMBL1132862, “Structure-activity and crystallographic analysis of a new class of non-amide-based thrombin inhibitor” (Bioorg Med Chem Lett, 2000).

For this assay, the target named is Prothrombin (Homo sapiens, UniProt P00734). In words: Anti- Thrombin activity using standard chromogenic assay.
`Cc1cc(OCC2CC[N+](=C([NH-])N)CC2)cc(OS(=O)(=O)c2ccc([N+](=O)[O-])cc2)c1` (stereo not given) had a Ki of 327 nM. For `Cc1cc(OCC2CCN(C(=N)N)CC2)cc(OS(=O)(=O)c2cccc(Cl)c2Cl)c1`, the Ki amounted to 22 nM. The result for `CCc1cc(OCC2CCN(C(=N)N)CC2)cc(OS(=O)(=O)c2ccccc2Cl)c1` reads 39 nM. `Cc1cc(OCC2CCN(C(=N)N)CC2)cc(OS(=O)(=O)c2cccc(Cl)c2)c1` returned a Ki of 39 nM.

Regarding `COC(=O)c1ccccc1S(=O)(=O)Oc1cc(C)cc(OCC2CCN(C(=N)N)CC2)c1`, the Ki amounted to 28 nM.

`Cc1cc(OCC2CCN(C(=N)N)CC2)cc(OS(=O)(=O)c2ccccc2N)c1` came in with an inhibitory constant (Ki) of 52 nM. The result for `Cc1cc(OCC2CC[N+](=C([NH-])N)CC2)cc(OS(=O)(=O)c2ccccc2[N+](=O)[O-])c1` (stereo not given) reads 16 nM; that for `N=C(N)N1CCC(COc2cc(Cl)cc(OS(=O)(=O)c3ccccc3Cl)c2)CC1`, 30 nM. Consider `Cc1cc(OCC2CCN(C(=N)N)CC2)cc(OS(=O)(=O)c2cccc3ccccc23)c1`, for which the affinity corresponds to a Ki of 35 nM. Take `COc1cc(OCC2CCN(C(=N)N)CC2)cc(OS(=O)(=O)c2ccccc2Cl)c1`: the Ki was 44 nM. `Cc1cc(OCC2CCN(C(=N)N)CC2)cc(OS(=O)(=O)c2ccccc2)c1` gave a Ki of 32 nM. In the case of `Cc1cc(OCC2CCN(C(=N)N)CC2)cc(OS(=O)(=O)c2cccc(N)c2)c1` it was 32 nM; in that of `N=C(N)N1CCC(COc2cc(CO)cc(OS(=O)(=O)c3ccccc3Cl)c2)CC1`, 490 nM. `Cc1cc(OCC2CCN(C(=N)N)CC2)cc(OS(=O)(=O)c2cccc(C(F)(F)F)c2)c1` yielded a Ki of 445 nM. The result for `COC(=O)c1cc(OCC2CCN(C(=N)N)CC2)cc(OS(=O)(=O)c2ccccc2Cl)c1` reads 3700 nM; that for `Cc1cc(OCC2CCN(C(=N)N)CC2)cc(OS(=O)(=O)c2ccccc2C(F)(F)F)c1`, 14 nM. `N=C(N)N1CCC(COc2cccc(OS(=O)(=O)c3ccccc3Cl)c2)CC1` displayed a Ki of 190 nM. Molecule `Cc1cc(OCC2CC[N+](=C([NH-])N)CC2)cc(OS(=O)(=O)c2cccc([N+](=O)[O-])c2)c1` (stereo not given) returned a Ki of 115 nM.

`Cc1cc(OCC2CCN(C(=N)N)CC2)cc(OS(=O)(=O)c2cccc(C)c2)c1`: the Ki is 36 nM. Take `Cc1cc(OCC2CCN(C(=N)N)CC2)cc(OS(=O)(=O)c2ccc(N)cc2)c1`: the Ki was determined as 399 nM.
